Experiments:
[1] = Host cell cytotoxicity, Akata; format: cell-based; settings: Akata cells (Burkitt lymphoma cell line); human Akata; Epstein-Barr assay
Method: The Akata Burkitt lymphoma cell line is permissive for EBV lytic reactivation through activation of the B cell receptor ([52]). As expected, 24 hours after receptor engagement with anti-IgG, 30% of Akata cells induced surface expression of the late EBV gene gp350, which serves as a proxy for cells that are replicating viral DNA and forming new virions (Figure 3A).

[2] = test system: Zika virus (strain DAK41525); settings: Zika/human HFF
[3] = Mouse pharmacokinetics, plasma; format: in vivo; settings: single 50 mg/kg p.o., female BALB/c mice
Method: The pharmacokinetics study used fed female BALB/c mice (22 g, n = 3 per time point). Blood samples (~30 μL via saphenous vein puncture) were taken at 0.25, 0.5, 1, 2, 4, 8, and 24 hours. […] The lower limit of quantification was 10 ng/mL. An aliquot of 10 μL plasma sample was mixed with 10 μL terfenadine solvent plus 2 μL methanol. An additional 200 μL of terfenadine solvent was added, and the resulting mixture was vortexed for 1 minute and centrifuged at 1,500g for 15 minutes. The supernatant was diluted 10× with methanol/water (1:1 vol/vol with 0.1% formic acid), and 2 μL aliquots were analyzed using a QTRAP 4000 LC-MS/MS System (Sciex) with a C18 column (Kinetex). Pharmacokinetic parameters were determined with the noncompartmental analysis tool in WinNonlin (Certara).
Plasma samples from groups
Mean +/- SD is presented.

[4] = test system: acetylated α-tubulin in HepG2 cells; experiment: Western blot of acetylated α-tubulin in HepG2 cells; format: cell-based, human; settings: 24 hours, plus 1 µM trichostatin A
Method: (§1) Supplemental Figure 1. […] (A) HepG2 cells were treated with FLS- […]
(§2) determined by western blot. Total a-tubulin was monitored as a control. (B) MDA-MB-231 cells or (C) MRC-5 fibroblasts were treated with drug for 72h and c-Myc was monitored by western blot with b-actin as a control. Western blots are representative of three independent experiments.
(§3) (1 picture or pasted object on this page, not shown here)

[5] = test system: c-Myc in MDA-MB-231 breast adenocarcinoma cells; experiment: Western blot of c-Myc in MDA-MB-231 cells; format: cell-based, human; settings: 72 hours
Method: as §1, §2, §3

[6] = Host cell cytotoxicity, PHH; settings: human
[7] = test system: Hepatitis B virus (genotype D, subtype ayw); settings: Hepatitis B/human PHH
[8] = test system: HCMV TB40/E-mCherry-UL99eGFP; experiment: Infectivity of HCMV progeny particles (DNase I-resistant viral DNA vs TCID50); format: cell-based, human cytomegalovirus
[9] = test system: HCMV TB40/E-mCherry-UL99eGFP; experiment: HCMV virus yield at 72 hpi by TCID50 (3 IU/cell); format: cell-based, human cytomegalovirus; settings: Figure 8C
[10] = test system: Hepatitis B virus (genotype D, subtype ayw); experiment: microbe, parasite or virus in culture; settings: Hepatocyte, read-out: IC50, Hepatitis B
[11] = Residual drug levels in MRC-5 cells and supernatant after washout, mass spectrometry; format: in vitro ADME, human
Method: Supplemental Figure 8. […] (A) Uninfected cells
After 24h, supernatant was collected, monolayers were washed 3x to remove drug and cells were replenished with drug-free media.
Supernatants and cells were then assayed for residual drug levels at 2, 24 or 72h post-release. (B-C) Supernatant and cell-associated drug concentrations were determined by mass spectrometry. (D) […]
monolayer of MRC-5 cells. Sampling of the supernatant was conducted after a 24h incubation at 37°C, followed by 3X washes with PBS, collection of the final wash, and replenishment of drug-free medium to the dishes. Supernatant samples were then collected at 24 and 72h post drug-removal. […]
concentrations as determined by mass spectrometry. Mean +/- SD is shown (n=3).
as §3

[12] = 72 hours after drug removal, treated 24 h with 5 µM

With `Cc1cn(-c2ccc3c(c2)CN(c2ncc(Cc4ccc(-n5cccn5)cc4)s2)CC3)c(C)n1` [FLS-359, 7-(2,4-dimethyl-1H-imidazol-1-yl)-2-(5-{[4-(1H-pyrazol-1-yl)phenyl]methyl}-1,3-thiazol-2-yl)-1,2,3,4-tetrahydroisoquinoline] the CC50 [1] was > 100 µM, the “SI CC50/IC50” value [2] was 104.0 and the half-life ([3]; female, BALB/c, mouse, in vivo, po, 50 mg/kg, read-out: plasma half-life (T1/2) (converted)) was 5.8 ± 1.4 h. For the same molecule, the Cmax ([3]; female, BALB/c, mouse, plasma, po, 50 mg/kg) was 89.3 ± 11 µM, the AUC(0-inf) ([3]; mouse, plasma, po) was 713 µM·h and the Tmax ([3]; mouse, plasma, po) was 2 h. The Cmax ([3]; plasma, 50 mg/kg) was 89 µM, the “increase of acetylated α-tubulin level” value [4] was “about 3 factor” and the c-Myc protein level [5] was “dramatically reduced”. The CC50 [6] was > 10 µM, the “SI CC50/IC50” value [7] was >2.1 and the “reduction of particle/infectious unit ratio (infectivity)” value ([8]; 1.0 μM, 2 hpi to 96 hpi, 1 IU/cell) was 14.5 factor. For the same molecule, the reduced infectivity ([8]; 2.5 or 5.0 μM, 2 hpi to 96 hpi) was “more than 1,690 fold”, the “reduction in extracellular virus particles” value ([8]; Figure 8E) was “approximately 70 fold” and the “reduction of viral infectivity” value ([8]; Figure 8E, discussion) was “more than 1,600 fold”. The “production of infectious virus” value ([9]; 72 hpi, TCID50) was “reduced the production of infectious virus to below the limit of quantification”, the “reduction in infectious virus” value ([9]; 72 hours) was “more than 1,000 fold” and the IC50 [10] was 4.8 µM. The “removal of drug from culture dishes without cells” value ([11]; 5 µM in medium, no cells) was “efficiently removed by washing”, the “drug level in cells” value [11, 12] was ~ 5 μM and the “drug level in supernatant” value [11, 12] was ~ 0.4 μM.

From PMC10266789 (The Journal of Clinical Investigation, 2023)
